{"source": "patent US20160299147A1", "about": "“SCREENING, DIAGNOSIS, PROGNOSTICATION AND TREATMENT OF OVARIAN CANCER” (AFG TECHNOLOGIES S.À.R.L., priority 2013, published 2016)", "type_in_all_cases": "cell-based", "key": {"[1]": {"tested_on": "Caov-3 cells", "assay": "XTT viability assay in Caov-3 cells", "method": "Caov-3 or Ovcar-3 cells were plated at a density of 1×10^4 cells per well into a 96-well tissue culture plate. The cell number was determined using the Countess™ automated cell counter (Life Technologies). Where indicated paclitaxel and IGF-1 were added. The final volume of the tissue culture medium was 0.1 ml. Prior to the experiment for each 96 well plate, 5 ml XTT solution and 0.1 ml activation reagent (New England Biolabs; Cat. No. 9095S) were mixed. 50 μl of the activated solution was added to each well and incubated at 37° C. for 4 hrs. The plates were shaken gently to evenly distribute the dye in the wells. After the 4 hrs incubation the absorbance of the samples was measured using a Spectramax M5e plate reader (Molecular Devices; Mod. No. M5e) at a wavelength of 450 nm."}, "[2]": {"tested_on": "Ovcar-3 cells", "assay": "XTT viability assay in Ovcar-3 cells", "conditions": "25 nM paclitaxel for 24 hrs (5x the concentration used in Caov-3)", "description": "Caov-3 cells (ATCC® HTB-75™) were cultured in DMEM (Life Technologies; Cat. No. 31966-021) supplemented with 10% FBS (Life Technologies; Lot #41Q822OK) and GlutaMAX™ (Life Technologies; Cat. No. 35050-038). Ovcar-3 cells (ATCC® HTB-161™) were cultured in RPMI 1640 (LGC Standards; Cat. No. 30-2001) supplemented with 20% FBS (Life Technologies) and 10 μg/ml bovine insulin (Sigma Aldrich, Cat. No. 10516). Cells were cultured at 37° C. with 5% CO2 and ≧95% humidity. Cells were harvested following incubation with TrypLE™ Express (Life Technologies; Cat. No. 126005-010). Cell density and viability were determined by trypan blue exclusion using a Countess® Automated Cell Counter (Life Technologies; Mod No. C10281). […] Where indicated, Caov-3 cells were treated with 100 ng/ml IGFR blocking antibody (Millipore; Lot #30080) for 24 hrs, 100 ng/ml IGF-1 (Life Technologies; Lot #73159414A) for 48 hrs or 5 nM paclitaxel (Taxol® Sigma Aldrich; Lot #091M1781V) for 24 hrs. Ovcar-3 cells, where indicated, were treated with 100 ng/ml IGF-1 for 48 hrs or 25 nM paclitaxel for 24 hrs. […] The cell number was determined using the Countess™ automated cell counter (Life Technologies). […] After the 4 hrs incubation the absorbance of the samples was measured using a Spectramax M5e plate reader (Molecular Devices; Mod. No. M5e) at a wavelength of 450 nm."}, "[3]": {"tested_on": "Caov-3 cells", "assay": "Apoptotic DNA ladder detection in Caov-3 cells", "conditions": "5 nM paclitaxel for 24 hrs", "description": "Caov-3 cells (ATCC® HTB-75TM) were cultured in DMEM (Life Technologies; Cat. No. 31966-021) supplemented with 10% FBS (Life Technologies; Lot #41Q822OK) and GlutaMAXTM (Life Technologies; Cat. No. 35050-038). […] Cells were cultured at 37° C. with 5% CO2 and ≧95% humidity. Cells were harvested following incubation with TrypLETM Express (Life Technologies; Cat. No. 126005-010). Cell density and viability were determined by trypan blue exclusion using a Countess® Automated Cell Counter (Life Technologies; Mod No. C10281). […] Where indicated, Caov-3 cells were treated with 100 ng/ml IGFR blocking antibody (Millipore; Lot #30080) for 24 hrs, 100 ng/ml IGF-1 (Life Technologies; Lot #73159414A) for 48 hrs or 5 nM paclitaxel (Taxol® Sigma Aldrich; Lot #091M1781V) for 24 hrs. Ovcar-3 cells, where indicated, were treated with 100 ng/ml IGF-1 for 48 hrs or 25 nM paclitaxel for 24 hrs. Caov-3 or Ovcar-3 cells were plated into [MUT]^2 culture flasks in a volume of 25 ml. The cells were seeded at 1×10^6 cells per flask as determined using the CountessTM automated cell counter (Life Technologies). Where indicated paclitaxel, IGF-1, or IGF-1+paclitaxel were added. […] DNA was resuspended in 30 μl nuclease-free water (Ambion; Cat. No. AM9937) and was quantified using a NanoVue Plus Spectrophotometer (GE Healthcare). […]"}, "[4]": {"tested_on": "Ovcar-3 cells", "assay": "Mitotic phase distribution analysis (H3S10ph immunostaining) in Ovcar-3 cells", "conditions": "100 ng/ml IGF-1 for 48 hrs, vs untreated, p=0.055"}, "[5]": {"tested_on": "Ovcar-3 cells", "assay": "Invasion assay (Matrigel Boyden chamber) in Ovcar-3 cells", "conditions": "100 ng/ml IGF-1, vs untreated, n=2", "method": "FBS (10%) mediated cell migration through an extracellular matrix was measured by Boyden chamber assay [(BD Biocoat™ Matrigel invasion chamber) BD Biosciences; Cat. No. 354480)] following the manufacturer's instructions. Briefly, Caov-3 cells were transfected with PAPPA siRNA or control siRNA (negative control) as described above. Caov-3 cells were treated with IGFR blocking antibody or untreated as described previously. Ovcar-3 cells were treated with IGF-1 or untreated as described previously. Prior to transfections or treatments the cells were serum starved for 24 hrs. Caov-3 cells were collected in DMEM medium containing 5% BSA, counted and 0.5×10^5 cells were added to each invasion assay chamber. Ovcar-3 cells were collected in RPMI medium containing 5% BSA, counted and 2×10^5 cells were added to each invasion assay chamber. After incubation for 48 hrs the invasion chamber inserts were washed with PBS, fixed in 4% formaldehyde for 5 min, stained with 0.01% crystal violet or haematoxylin and cells from random areas on the filters were counted."}}}
{"molecule": "CC(=O)O[C@H]1C(=O)[C@@]2(C)[C@H]([C@H](OC(=O)c3ccccc3)[C@]3(O)C[C@H](OC(=O)[C@H](O)[C@@H](NC(=O)c4ccccc4)c4ccccc4)C(C)=C1C3(C)C)[C@]1(OC(C)=O)CO[C@@H]1C[C@@H]2O", "note": "[paclitaxel]", "values": [{"measurement": "cell viability (XTT assay)", "setting": "[1]; 5 nM paclitaxel for 24 hrs", "value": "decreased"}, {"measurement": "response to paclitaxel treatment (morphology, XTT viability, apoptosis)", "setting": "[2]", "value": "not responding"}, {"measurement": "apoptosis (DNA apoptosis kit)", "setting": "[3]", "value": "induction of apoptosis"}]}
{"molecule": "IGF-1: insulin-like growth factor-1, recombinant, exogenously added (Life Technologies); IGF-1 receptor agonist", "values": [{"measurement": "mitotic delay (mitotic cells in prophase/prometaphase)", "setting": "[4]", "value": "decrease"}, {"measurement": "invasiveness (number of invading cells, Boyden chamber assay)", "setting": "[5]", "value": "reduced"}, {"measurement": "cell viability (XTT assay)", "setting": "[1]; 100 ng/ml IGF-1 for 48 hrs, added alone", "value": "no effect"}]}
